Values joined by “and” are separate entries in the source; they are usually repeats but may differ in a detail not shown here. Equal entries are not always repeated. “Also recorded” adds a separate entry of the source.
What was measured:
P. aeruginosa = conditions: previous studies; cited from earlier work
[1] = test system: P. aeruginosa PAO1 biofilm; test: Confocal laser scanning microscopy (CLSM) of biofilm accumulation; type: cell-based, Pseudomonas aeruginosa; conditions: 3.30 mM cadaverine, 24 hrs, SYTO 9, n=5
Experimental: PAO1 overnight cultures were diluted to OD600=0.17 in LB with 0 or 3.30 mM cadaverine in 35×10 mm confocal dishes and incubated statically at 37° C. in 5% CO2 for 24 hrs. Liquid media was aspirated and adhered biofilm was stained with SYTO 9 for 10 min and washed with PBS. CLSM stitched images were collected (n=5) with a laser power of 4.5% under 10× magnification using an Olympus FluoView FV10i CLSM. Mean gray scale value and surface area coverage were quantified using Fiji.

rats = conditions: 2,000 mg/kg body weight in rats; cited from earlier work
HT29 intestinal cells = conditions: up to 70 mM in HT29 intestinal cells; cited from earlier work
PAO1 Td-tomato or Xen41 = test: Culture imaging by photo, dissecting microscope and IVIS (biofilm morphology); type: cell-based, Pseudomonas aeruginosa; conditions: 3.30 mM cadaverine
Experimental: PAO1 Td-tomato or Xen41 cultures were grown similarly to CLSM cultures described above. iPhone 8 images were taken in a controlled well-lit environment. The air-liquid interface was imaged using an Amscope dissecting microscope with an MU500 camera. Xen41 light emission was detected with an IVIS Lumina II system (Caliper LifeSciences) as an indicator of biofilm activity.

P. aeruginosa PAO1 = test: Microtiter plate assay: planktonic growth (OD600) and crystal violet staining of biofilm (OD590); type: cell-based, Pseudomonas aeruginosa
Experimental: Cadaverine (Sigma Aldrich) 5- or 10-mM stocks were prepared in LB and sterile filtered with a […] filter. […] […] Outer edge wells were filled with PBS to avoid “edge effects” due to evaporation. OD600 was measured to quantify planktonic growth. Liquid media was gently aspirated, and wells were washed three times with 150 μL PBS. Adhered biofilm was stained with 125 μL of 0.1% crystal violet (CV) in 20% ethanol in ddH2O (v/v) for 30 min. CV was gently aspirated, wells were washed five times with 150 μL PBS, and CV was solubilized with 150 μL 33% glacial acetic acid in ddH2O (v/v) by shaking gently at 100 rpm at room temperature for 25 min. CV was quantified at OD590 to report biofilm accumulation. LB blanks were averaged and subtracted from readings. Control PAO1 wells were averaged, and all measurements were normalized to control measurements per plate and reported as percent change from control.

[2] = PAO1 Td-tomato, cadaverine 24 hrs
[3] = pre-formed biofilm: grown 24 hrs, then cadaverine for additional 24 hrs

SMILES: NCCCCCN [Cadaverine]
- effect on effectiveness of β-lactams (P. aeruginosa): enhances the effectiveness of many β-lactams
- reduction in biofilm accumulation by mean grayscale value [1]: 54.5±26.0% and 55%
- reduction in biofilm accumulation by surface area coverage [1]: 79.8±55.1% and 80%
- acute oral toxicity (rats): low acute oral toxicity
- cytotoxicity (HT29 intestinal cells): negligible cytotoxicity
- biofilm morphology (PAO1 Td-tomato or Xen41; 24 hrs, standing liquid culture, PAO1 Td-tomato): more aggregate-like, in a pellicle
- metabolic state of pellicle biofilm (IVIS luminescence) (PAO1 Td-tomato or Xen41; PAO1 Xen41, air-liquid interface): metabolically active
- bactericidal or bacteriostatic effect (P. aeruginosa PAO1; OD600, 0-3.30 mM cadaverine): not bactericidal; also recorded: did not have a bactericidal or bacteriostatic effect
- biofilm accumulation decrease (crystal violet OD590), percent change from control (P. aeruginosa PAO1; [2]): 37%
- planktonic growth increase (OD600), percent change from control (P. aeruginosa PAO1; [2]): 4%
- planktonic growth increase (OD600), percent change from control (P. aeruginosa PAO1; WT PAO1, 0-3.30 mM cadaverine from initiation, 24 hrs, maximal (3.30 mM)): 20.5±4.2% and 21%
- biofilm accumulation (crystal violet OD590) at low concentration (P. aeruginosa PAO1; WT PAO1, 25 μM cadaverine, 24 hrs): increased marginally
- biofilm accumulation decrease (crystal violet OD590), percent change from control (P. aeruginosa PAO1; [3]): 39.8±2.5% and 40%
- planktonic growth increase (OD600), percent change from control (P. aeruginosa PAO1; [3]): 5.8±1.8% and 6%
